Measurements published in ChEMBL document CHEMBL1125752, “Relationship between tissue selectivity and lipophilicity for inhibitors of HMG-CoA reductase” (J Med Chem, 1991).

What was measured:
[1] = organism: Rattus norvegicus; experiment: Incorporation of [14C]- acetate into sterols measured in rat testis.; format: functional, organism-based
[2] = organism: Rattus norvegicus; experiment: Incorporation of [14C]- acetate into sterols measured in rat liver.; format: functional, organism-based
[3] = IC50 ratio evaluated as the IC50 values of spleen to that of liver.; format: functional; design: reference not given here
[4] = IC50 ratio evaluated as the IC50 values of testis to that of liver.; format: functional; design: reference not given here
[5] = target: T1, 3-hydroxy-3-methylglutaryl-coenzyme A reductase (Rattus norvegicus, UniProt P51639); experiment: Ability to inhibit microsomal preparation of HMG-CoA reductase in rat liver.
T1 sequence (P51639 whole entry): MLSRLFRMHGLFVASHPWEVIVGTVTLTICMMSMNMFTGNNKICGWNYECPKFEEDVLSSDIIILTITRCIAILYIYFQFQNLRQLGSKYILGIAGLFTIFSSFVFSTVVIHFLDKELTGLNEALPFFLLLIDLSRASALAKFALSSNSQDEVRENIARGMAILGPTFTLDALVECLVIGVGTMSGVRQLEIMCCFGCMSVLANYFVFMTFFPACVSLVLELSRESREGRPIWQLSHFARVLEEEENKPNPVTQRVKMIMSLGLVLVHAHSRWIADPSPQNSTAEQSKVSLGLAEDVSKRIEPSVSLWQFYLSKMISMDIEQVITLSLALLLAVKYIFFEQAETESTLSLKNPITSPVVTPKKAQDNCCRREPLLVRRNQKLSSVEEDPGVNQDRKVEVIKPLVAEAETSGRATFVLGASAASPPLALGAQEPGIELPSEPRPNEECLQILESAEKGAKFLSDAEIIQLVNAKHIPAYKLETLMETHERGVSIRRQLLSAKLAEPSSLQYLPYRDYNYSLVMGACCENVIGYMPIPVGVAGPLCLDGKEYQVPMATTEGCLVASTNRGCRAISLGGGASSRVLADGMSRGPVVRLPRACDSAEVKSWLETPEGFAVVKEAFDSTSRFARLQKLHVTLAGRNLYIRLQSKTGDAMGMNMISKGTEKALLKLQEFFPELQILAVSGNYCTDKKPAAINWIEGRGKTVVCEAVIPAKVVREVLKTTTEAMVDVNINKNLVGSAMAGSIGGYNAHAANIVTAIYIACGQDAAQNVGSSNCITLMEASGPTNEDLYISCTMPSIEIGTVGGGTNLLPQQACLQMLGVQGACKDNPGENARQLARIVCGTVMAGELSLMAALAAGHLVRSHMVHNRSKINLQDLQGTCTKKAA

[6] = organism: Rattus norvegicus; experiment: Incorporation of [14C]- acetate into sterols measured in rat spleen.; format: functional, organism-based
[7] = organism: Rattus norvegicus; experiment: Compound was tested for its effect on the incorporation of [14C]- acetate into sterols measured rat liver.; format: functional, organism-based
[8] = organism: Rattus norvegicus; experiment: Compound was tested for its effect on the incorporation of [14C]- acetate into sterols measured rat spleen.; format: functional, organism-based
[9] = organism: Rattus norvegicus; experiment: Compound was tested for its effect on the incorporation of [14C]- acetate into sterols measured rat testis.; format: functional, organism-based

SMILES | IC50 [1] [nM] | IC50 [2] [nM] | IC50 ratio [3] | IC50 ratio [4] | IC50 [5] [nM] | IC50 [6] [nM] | IC50 [7] [nM] | IC50 [8] [nM] | IC50 [9] [nM]
Cn1nnnc1C(/C=C/[C@@H](O)C[C@@H](O)CC(=O)[O-])=C(c1ccc(F)cc1)c1ccc(F)cc1.[Na+] | 638 | 108 | 14.6 | 5.9 | 13 | 1580 | – | – | –
CC(C)c1nn(-c2ccccn2)c(-c2ccc(F)cc2)c1/C=C/[C@@H](O)C[C@@H](O)CC(=O)[O-].[Na+] | 82 | 17 | 1.7 | 4.8 | 10 | 29 | – | – | –
Cc1cc(-c2ccc(F)cc2)c(/C=C/[C@@H](O)C[C@@H](O)CC(=O)[O-])c(C(C)C)[n+]1[O-].[Na+] | – | – | 14.8 | 39.9 | 9.4 | – | 18 | 266 | 718
Cc1cc(-c2ccc(F)cc2)c(/C=C/[C@@H](O)C[C@@H](O)CC(=O)[O-])c(C(C)C)n1.[Na+] | 17 | 71 | 0.13 | 0.24 | 7.7 | – | – | 9 | –
CC(C)c1nc2ccc(Cl)cc2c(-c2ccc(F)cc2)c1/C=C/[C@@H](O)C[C@@H](O)CC(=O)[O-].[Na+] | 184 | 6280 | 0.02 | 0.03 | 480 | 92 | – | – | –
Cc1cc(C)c(OC[C@@H](O)C[C@@H](O)CC(=O)[O-])c(C2CCCCCC2)c1.[Na+] | 63 | 5170 | 0.02 | 0.01 | 141 | 108 | – | – | –
CC(C)c1c(Br)c(Br)c(-c2ccc(F)cc2)n1CC[C@@H](O)C[C@@H](O)CC(=O)[O-].[Na+] | 24 | 2730 | 0.05 | 0.009 | 26 | 140 | – | – | –
CC[C@H](C)C(=O)O[C@H]1C[C@H](C)C=C2C=C[C@H](C)[C@H](CC[C@@H]3C[C@@H](O)CC(=O)O3)[C@H]21 | 4 | 28 | 0.17 | 0.14 | 13 | 5 | – | – | –
CC(C)n1c(/C=C/C(O)CC(O)CC(=O)O)c(-c2ccc(F)cc2)c2ccccc21 (stereo unspecified) [FLUVASTATIN SODIUM] | 4 | 142 | – | – | – | 292 | – | – | –

More lines, in order of falling IC50 [5], values ahead:

IC50 [1] [nM] | IC50 [2] [nM] | IC50 ratio [3] | IC50 ratio [4] | IC50 [5] [nM] | IC50 [6] [nM] | IC50 [7] [nM] | IC50 [8] [nM] | IC50 [9] [nM] | SMILES
511 | 6040 | 0.06 | 0.08 | 100 | 375 | – | – | – | Cc1ccc(-c2ccc(C(C)C)c(OC[C@@H](O)C[C@@H](O)CC(=O)[O-])c2-c2ccc(F)cc2)cc1.[Na+]
329 | 141 | 1.6 | 2.3 | 40 | 228 | – | – | – | CC[C@H](C)C(=O)O[C@H]1C[C@H](O)C=C2C=C[C@H](C)[C@H](CC[C@@H](O)C[C@@H](O)CC(=O)[O-])[C@H]21.[Na+] [PRAVASTATIN SODIUM]
8 | 34 | 0.35 | 0.24 | 7.2 | 12 | – | – | – | CC(C)c1nn(-c2ccccc2)c(-c2ccc(F)cc2)c1/C=C/[C@@H](O)C[C@@H](O)CC(=O)[O-].[Na+]
64 | 10 | 2 | 6.4 | 6.6 | 20 | – | – | – | CC(C)c1nn(-c2cnccn2)c(-c2ccc(F)cc2)c1/C=C/[C@@H](O)C[C@@H](O)CC(=O)[O-].[Na+]
16 | 8070 | 0.01 | 0.002 | 2 | 77 | – | – | – | CC(C)c1nc(-c2ccccc2)cc(-c2ccc(F)cc2)c1/C=C/[C@@H](O)C[C@@H](O)CC(=O)[O-].[Na+]
